Source: ChEMBL document CHEMBL3244211, “5-Carboxamido-4-amino-3-isoxazolidone, and asparagine analogue” (J Med Chem, 1978)
Calls of active or inactive are those of the source. The calls are words filed in the database; no cut-off is given here.

Legend:
[1] = system: L1210; assay: Antitumor activity against mouse L1210 cells allografted in BDF1 mouse assessed as increase of host survival time at 100 mg/kg, ip; format: functional
[2] = system: P388; assay: Antitumor activity against mouse P388 cells allografted in BDF1 mouse assessed as increase of host survival time at 200 mg/kg, ip qd for 9 days; format: functional
[3] = system: Mus musculus; assay: Toxicity in mouse P388 cells allografted BDF1 mouse assessed as mortality at 200 mg/kg, ip qd for 9 days; format: organism-based; design: dose 200 mg/kg, route intraperitoneal; details: in vivo, 216 h
[4] = molecular target: T1, Asparagine synthetase [glutamine-hydrolyzing] (Rattus norvegicus) (UniProt P49088); assay: Inhibition of asparagine synthetase in rat Novikoff hepatoma
T1 sequence (whole entry): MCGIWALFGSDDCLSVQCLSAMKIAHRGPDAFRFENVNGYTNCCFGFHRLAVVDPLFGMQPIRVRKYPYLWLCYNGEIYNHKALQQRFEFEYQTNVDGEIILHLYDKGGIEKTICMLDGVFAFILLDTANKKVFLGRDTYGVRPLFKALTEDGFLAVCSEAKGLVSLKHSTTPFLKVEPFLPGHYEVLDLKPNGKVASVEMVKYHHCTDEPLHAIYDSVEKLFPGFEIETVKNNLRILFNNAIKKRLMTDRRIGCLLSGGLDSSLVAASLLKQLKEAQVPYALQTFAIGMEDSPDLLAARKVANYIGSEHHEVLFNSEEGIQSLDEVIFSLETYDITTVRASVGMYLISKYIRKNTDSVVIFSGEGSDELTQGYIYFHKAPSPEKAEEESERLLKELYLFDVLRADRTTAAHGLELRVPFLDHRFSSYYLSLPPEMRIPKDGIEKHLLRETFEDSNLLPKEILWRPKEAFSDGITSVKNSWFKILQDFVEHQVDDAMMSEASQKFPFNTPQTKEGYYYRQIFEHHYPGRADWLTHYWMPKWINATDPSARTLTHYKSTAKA

In the case of `NC(=O)[C@H]1ONC(=O)[C@@H]1N` (relative stereo), the Activity [1] is reported as “inactive”, the Activity [2] is reported as “inactive” and the Activity [3] is reported as “Non-toxic”. For the same compound, the inhibition [4] was “inactive”.

In the case of `O=C(NO)[C@H]1N[C@@H]1C(=O)NO` (relative stereo), the Activity ([1]; route intraperitoneal) is reported as 13%, the T/C ([2]; route intraperitoneal) is reported as 128% and the Activity [3] is reported as “Non-toxic”.
